Measured values reported in patent publication US12630557B2, “Salt and crystal form of pyrimidine compound, and preparation methods therefor” (Sichuan Kelun-Biotech Biopharmaceutical Co., Ltd., priority 2020, dated 2026).
Converted amounts (≈) assume the structure as drawn.

Columns and labels:
[1] = Pharmacokinetic study in mice; format: in vivo; conditions: female Balb/c mice, PO 1 mg/kg, plasma compound I
Procedure: Female Balb/c mice (6 mice) were orally administered with 1 mg/kg of the crystal form A of the fumarate salt of the compound I by gavage. The compound was first dissolved with 0.5% methylcellulose solution and ultrasonicated to ensure complete dissolution or uniform suspension of the compound. 30 min, 1 […], and 24 h after administration, 0.2 mL of blood (EDTA-K2 anticoagulated) was venously collected. The collected whole blood was temporarily stored in an ice box, and centrifuged for 10 min within 2 h to separate the plasma (4° C.). The collected plasma was stored in a refrigerator at -80° C. prior to testing. The blood concentration of the compound I was detected by LC-MS/MS, and the linear range was from 10 to 10000 ng/mL.

[2] = molecular target: RET^V804L (Homo sapiens, UniProt P07949, V804L); experiment: HTRF KinEASE-TK RET enzyme inhibition; format: biochemical; conditions: RET^V804L 0.6 nM, ATP 10 μM; read-out: Inhibitory IC50 on RET enzyme
Procedure: (§1) The inhibitory effects of the crystal form A of the fumarate salt of the compound I on the activity of wild-type RET, mutant-type RET (RET^V804M RET^V804L, and RET^M918T), and fusion-type RET (CCDC6-RET and KIF5B-RET) were determined using HTRF KinEASE-TK (Cisbio) kit.
(§2) After pre-incubation of the above different types of RET enzymes and different concentrations of the test compounds (9 concentration points) at room temperature for 30 min, a substrate and adenosine triphosphate (ATP) were added to initiate the reaction. After incubation at room temperature for 40 min, TK antibody-cryptate and streptavidin-XL665 were added, and after incubation at room temperature for 60 min, the detection was performed.
(§3) With the solvent group (DMSO) as the negative control and the buffer group (without RET enzyme) as the blank control, the relative inhibitory activity percentages of the compound at different concentrations were computed as per the following equation: Relative inhibitory activity percentage=1−(compound group of different concentrations-blank control)/(negative control-blank control)*100%
(§4) The relative inhibitory activity percentages of the compound at different concentrations were plotted with respect to the compound concentrations, and the curve was fitted in accordance with a four-parameter model to compute the IC50 value as per the following equation: y=min+(max−min)/(1+(x/IC50)^(−Hillslope)) • where y is the relative inhibitory activity percentage, max and min are a maximum value of the fitted curve, and a minimum value of the fitted curve respectively, x is a logarithmic concentration of the compound, and Hillslope is a slope of the curve.

[3] = molecular target: RET^V804M (Homo sapiens, UniProt P07949, V804M); experiment: HTRF KinEASE-TK RET enzyme inhibition; format: biochemical; conditions: RET^V804M 0.6 nM, ATP 15 μM; read-out: Inhibitory IC50 on RET enzyme
Procedure: as §1, §2, §3, §4

[4] = molecular target: T1, CCDC6-RET (Homo sapiens, UniProt P07949); experiment: HTRF KinEASE-TK RET enzyme inhibition; format: biochemical; conditions: CCDC6-RET 0.3 nM, ATP 15 μM; read-out: Inhibitory IC50 on RET enzyme
T1 construct: the other entry of the earlier key: CCDC6 (Q16204, Coiled-coil domain-containing protein 6)
T1 sequence (P07949 with tags, fused parts or gaps): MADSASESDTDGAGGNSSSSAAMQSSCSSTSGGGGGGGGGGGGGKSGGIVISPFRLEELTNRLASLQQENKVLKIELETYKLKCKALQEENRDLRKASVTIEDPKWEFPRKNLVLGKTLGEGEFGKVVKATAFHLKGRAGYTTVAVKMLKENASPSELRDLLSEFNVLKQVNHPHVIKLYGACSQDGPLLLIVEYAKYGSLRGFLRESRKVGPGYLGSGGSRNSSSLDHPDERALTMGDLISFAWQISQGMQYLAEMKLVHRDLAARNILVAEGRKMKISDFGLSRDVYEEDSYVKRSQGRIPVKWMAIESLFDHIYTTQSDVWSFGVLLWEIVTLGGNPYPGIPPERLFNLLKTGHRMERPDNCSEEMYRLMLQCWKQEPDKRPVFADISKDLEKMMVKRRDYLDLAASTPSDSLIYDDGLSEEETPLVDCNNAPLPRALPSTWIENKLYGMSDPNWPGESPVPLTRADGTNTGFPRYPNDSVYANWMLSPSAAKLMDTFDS
Procedure: as §1, §2, §3, §4

[5] = molecular target: RET^M918T (Homo sapiens, UniProt P07949, M918T); experiment: HTRF KinEASE-TK RET enzyme inhibition; format: biochemical; conditions: RET^M918T 0.3 nM, ATP 15 μM; read-out: Inhibitory IC50 on RET enzyme
Procedure: as §1, §2, §3, §4

[6] = molecular target: wild-type RET (Homo sapiens, UniProt P07949); experiment: HTRF KinEASE-TK RET enzyme inhibition; format: biochemical; conditions: RET 0.2 nM, ATP 30 μM; read-out: Inhibitory IC50 on RET enzyme
Procedure: as §1, §2, §3, §4

[7] = Dynamic water adsorption (DVS) experiment; format: physicochemical; conditions: 25° C.
Procedure: Device information: SMS (Surface Measurement Systems) Intrinsic
Experimental method: temperature: 25° C.; protective gas N2; maximum equilibration time: 120 min; RH range: 0%-90%-0%.

[8] = Stability experiment under conditions of influencing factors (high temperature / high humidity); format: physicochemical; conditions: for HPLC purity: area normalized purity
From the text: Stability data of the crystal form A of the fumarate salt of the compound I under conditions of influencing factors is provided in Table 17 (HPLC purity is area normalized purity).

[9] = Solubility determination at different pH; format: physicochemical; conditions: aqueous buffer
[10] = High humidity 25° C. ± 2° C./92.5% RH ± 5% RH, Day 30
[11] = High temperature 60° C. ± 2° C., Day 30

RET^V804L, sequence (P07949 29-1114 V804L): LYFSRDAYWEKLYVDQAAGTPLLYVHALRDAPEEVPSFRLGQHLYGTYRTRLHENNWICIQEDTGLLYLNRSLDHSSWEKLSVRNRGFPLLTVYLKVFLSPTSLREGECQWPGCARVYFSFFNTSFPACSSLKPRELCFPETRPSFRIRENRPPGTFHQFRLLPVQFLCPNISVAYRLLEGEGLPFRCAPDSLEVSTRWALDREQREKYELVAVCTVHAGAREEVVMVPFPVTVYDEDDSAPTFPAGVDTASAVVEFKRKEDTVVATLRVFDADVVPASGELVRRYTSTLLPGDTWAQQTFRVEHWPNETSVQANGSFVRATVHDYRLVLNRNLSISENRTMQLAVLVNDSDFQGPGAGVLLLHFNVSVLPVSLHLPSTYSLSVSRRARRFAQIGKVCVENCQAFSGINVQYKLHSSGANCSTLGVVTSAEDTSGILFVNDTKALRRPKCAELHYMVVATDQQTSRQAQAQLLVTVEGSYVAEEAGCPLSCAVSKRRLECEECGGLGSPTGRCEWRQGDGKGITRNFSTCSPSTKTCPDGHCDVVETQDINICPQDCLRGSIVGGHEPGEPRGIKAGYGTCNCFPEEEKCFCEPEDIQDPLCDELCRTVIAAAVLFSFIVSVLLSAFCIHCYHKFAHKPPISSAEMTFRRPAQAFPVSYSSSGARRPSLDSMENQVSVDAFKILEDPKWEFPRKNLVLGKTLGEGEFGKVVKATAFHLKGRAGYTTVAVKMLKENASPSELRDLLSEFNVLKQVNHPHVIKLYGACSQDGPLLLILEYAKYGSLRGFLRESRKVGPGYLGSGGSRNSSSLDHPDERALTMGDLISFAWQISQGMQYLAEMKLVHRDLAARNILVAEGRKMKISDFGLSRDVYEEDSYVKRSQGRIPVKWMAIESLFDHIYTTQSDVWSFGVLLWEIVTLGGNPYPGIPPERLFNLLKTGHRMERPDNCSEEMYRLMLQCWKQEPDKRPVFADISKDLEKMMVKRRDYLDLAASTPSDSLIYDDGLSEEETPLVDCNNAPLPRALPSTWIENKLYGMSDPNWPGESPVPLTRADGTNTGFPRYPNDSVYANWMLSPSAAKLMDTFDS
RET^M918T, sequence (P07949 29-1114 M918T): as the sequence (P07949 29-1114 V804L) above, with L776V, M890T counted along it
RET^V804M, sequence (P07949 29-1114 V804M): as the sequence (P07949 29-1114 V804L) above, with L776M counted along it
wild-type RET, sequence (P07949 29-1114): as the sequence (P07949 29-1114 V804L) above, with L776V counted along it

With `Cc1cc(Nc2cc(C)[nH]n2)nc(-c2ccc(N3CC4CC(C3)N4Cc3ccc(-n4cc(F)cn4)nc3)nc2)n1` the Cl [1] was 88 mL/h/kg, the Vd [1] was 356 mL/kg and the AUC(0-inf) ([1]; mouse) was 11400 ng·h/mL. The AUC(0-t) ([1]; mouse) was 11400 ng·h/mL, the Cmax ([1]; mouse) was 2060 ng/mL and the Tmax ([1]; mouse) was 1 h. It also gave a half-life ([1]; mouse) of 169 min, an IC50 [2] of 1.59 ± 0.51 nM and an IC50 [3] of 0.6 ± 0.2 nM. The IC50 [4] was 2.48 ± 1 nM, the IC50 [5] was 2.23 ± 0.64 nM and the IC50 [6] was 0.56 ± 0.09 nM. For the same molecule, the “crystal form before and after the DVS test” value ([7]; RH range 0%-90%-0%) was “remained changed”, the “desorption of adsorbed water (DVS)” value ([7]; humidity decreased from 90% to 0%) was “fully desorbed” and the “water absorbed (DVS)” value ([7]; humidity increased to 90%) was “about 0.7%”. The Appearance ([8]; Day 0) was “White solid”, the HPLC purity ([8]; Day 0) was 99.6% and the Appearance [8, 10] was “White solid”. The Crystal form [8, 10] was “form A”, the HPLC purity [8, 10] was 99.5% and the Appearance [8, 11] was “White solid”. For the same molecule, the Crystal form [8, 11] was “form A”, the HPLC purity [8, 11] was 99.3% and the solubility ([9]; Buffer pH 1.0) was ≥ 12200 µg/mL. For the same molecule, the solubility ([9]; Buffer pH 2.0) was 3500 µg/mL (≈ 6.51 mM) and the solubility ([9]; Buffer pH 3.0) was 2500 µg/mL (≈ 4.65 mM).
